We go through three compounds from publication doi:10.1101/2024.12.04.24318244v2 (medrxiv, 2024).

Common to all, as to assay: radioligand competition binding
The target of one test is 5-HT2B (Homo sapiens, UniProt P41595).
The next test deals with S2R.
A further test deals with T1, 5-HT1A (Homo sapiens, UniProt P08908).
T1 sequence (P08908 1-422): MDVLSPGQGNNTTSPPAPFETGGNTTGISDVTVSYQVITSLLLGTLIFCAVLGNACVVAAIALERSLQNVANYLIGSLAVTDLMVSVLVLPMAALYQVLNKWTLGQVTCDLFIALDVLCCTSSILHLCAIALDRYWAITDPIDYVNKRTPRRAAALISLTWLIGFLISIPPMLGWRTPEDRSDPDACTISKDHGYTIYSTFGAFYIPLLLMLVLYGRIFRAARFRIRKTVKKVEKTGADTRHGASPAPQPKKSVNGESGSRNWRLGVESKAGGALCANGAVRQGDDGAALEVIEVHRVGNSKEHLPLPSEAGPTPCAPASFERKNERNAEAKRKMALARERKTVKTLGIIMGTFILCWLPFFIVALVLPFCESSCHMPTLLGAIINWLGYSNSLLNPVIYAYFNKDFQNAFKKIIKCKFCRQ

Where a name gives a salt, the structure may show the parent alone. Read-outs that look alike come from different tables or passages of the source.

Sequence of 5-HT2B (P41595 whole entry): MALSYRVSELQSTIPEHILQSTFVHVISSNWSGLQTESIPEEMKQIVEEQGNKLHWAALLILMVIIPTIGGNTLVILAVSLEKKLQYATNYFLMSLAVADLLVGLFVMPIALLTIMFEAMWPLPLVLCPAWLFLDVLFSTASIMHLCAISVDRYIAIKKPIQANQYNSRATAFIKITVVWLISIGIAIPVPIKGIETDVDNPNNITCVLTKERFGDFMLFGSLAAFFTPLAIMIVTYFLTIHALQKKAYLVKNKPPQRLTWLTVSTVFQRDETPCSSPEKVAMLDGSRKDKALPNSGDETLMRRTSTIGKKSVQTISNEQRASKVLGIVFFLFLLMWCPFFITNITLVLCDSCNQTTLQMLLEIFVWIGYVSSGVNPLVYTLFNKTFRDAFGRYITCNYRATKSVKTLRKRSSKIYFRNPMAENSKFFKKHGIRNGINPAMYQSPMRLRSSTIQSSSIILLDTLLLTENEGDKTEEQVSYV

Take `CC(=O)Nc1cccc(N2CCN(CCCCNS(=O)(=O)CC3CCCCC3)CC2)c1` [NP-18-2, N-{3-[4-(4-cyclohexylmethanesulfonylaminobutyl)-piperazin-1-yl]phenyl} acetamide hydrochloride]: the inhibitory constant (Ki) is greater than 5000 nM at 5-HT2B, greater than 2000 nM on S2R and 5 to 11 nM at 5-HT1A (text b38 prints a wider range than the table).
In the case of `N#Cc1cc(CN2CCC(Nc3ncnc4sc(Cl)cc34)CC2)ccc1F` [NP-18-3, 5-((4-(6-chlorothieno[2,3-d]pyrimidin-4-ylamino)piperidine-1-yl)methyl)-2-fluorobenzonitrile monofumarate], the inhibition constant (Ki) at 5-HT2B amounted to 3.4 nM; on S2R it was 42 nM.
As to `CC(C)n1c(=O)c(C(=O)NCCCN2CCCCC2)c(O)c2ccsc21` [PRX-3140, 6,7-Dihydro-4-hydroxy-7-isopropyl-6-oxo-N-(3-(piperidin-1-yl)propyl)thieno[2,3-b]pyridine-5-carboxamide potassium salt], the results for the Ki at 5-HT2B, at S2R (text b35 prints a range that differs from the table) and on 5-HT1A were greater than 5000 nM, 36.1 nM and greater than 5000 nM, respectively.
